Marks after values point to notes of the source that are not given here.
What was measured:
[1] = Plasma pharmacokinetics on Day 10 after multiple doses of CTB + LED-E q8h (VNRX-7145-102 Part 3); details: human, oral; for AUC: AUCtau; for AUC / Cmax / half-life: geometric mean (CV %)
[2] = Plasma pharmacokinetics on Day 10 after multiple doses of LED-E q8h (VNRX-7145-101 Part 2, VNRX-7145-102 Part 2); type: in vivo, human; details: for AUC / Cmax / Tmax / half-life: human, oral, plasma; for Tmax: median (range)
Experimental: Quantitation used separate weighted 1 /x^2 linear least-squares regression analyses generated from calibration standards. Exploratory screening for metabolites was performed for some samples. […] […] […] Dose proportionality was analyzed using a power model in which pharmacokinetic exposure parameters and dose were converted to the natural log and linear regression results were reported, with the slope as the power estimate ([15]). […] In Part 2, achievement of steady-state concentrations was assessed using Tukey’s multiple comparison test for pre-dose and all dosing days (Days 2 to 10) for each dose level separately. […] Plasma pharmacokinetic parameters were calculated using noncompartmental analysis of the plasma and urine concentration-time data. […] AUCinf and Cmax were natural log-transformed before analysis, using a linear mixed effects model. […] In both studies, plasma pharmacokinetic parameters were calculated using WinNonlin (Certara; Radnor, PA), and urine pharmacokinetic parameters were calculated using SAS (SAS Institute; Cary, NC).

[3] = Urinary recovery on Day 10 after multiple doses of CTB + LED-E q8h (VNRX-7145-102 Part 3); details: urine, geometric mean (geometric CV %); for CL renal: human, oral, CLr
[4] = Urinary pharmacokinetics after single doses of LED-E; type: in vivo, human; details: urine, geometric mean (geometric CV %); for CL renal: human, oral
Experimental: Plasma and urine pharmacokinetics samples were assayed for LED-E, LED, and CTB, as appropriate using validated bioanalytical methods. […] Quantitation used separate weighted 1 /x^2 linear least-squares regression analyses generated from calibration standards. Exploratory screening for metabolites was performed for some samples. In both studies, plasma pharmacokinetic parameters were calculated using WinNonlin (Certara; Radnor, PA), and urine pharmacokinetic parameters were calculated using SAS (SAS Institute; Cary, NC).

[5] = Urinary pharmacokinetics on Day 10 after multiple doses of LED-E q8h; type: in vivo, human; details: urine; for CL renal: oral; for CL renal / Ae0–8 / Ae0–48: geometric mean (geometric CV %); for Ae0–8 / Ae0–48: after last dose (Day 10)
Experimental: Quantitation used separate weighted 1 /x^2 linear least-squares regression analyses generated from calibration standards. Exploratory screening for metabolites was performed for some samples. […] Plasma pharmacokinetic parameters were calculated using noncompartmental analysis of the plasma and urine concentration-time data. […] AUCinf and Cmax were natural log-transformed before analysis, using a linear mixed effects model. […] In both studies, plasma pharmacokinetic parameters were calculated using WinNonlin (Certara; Radnor, PA), and urine pharmacokinetic parameters were calculated using SAS (SAS Institute; Cary, NC).

[6] = Plasma pharmacokinetics after single ascending doses of LED-E (VNRX-7145-101 Part 1); type: in vivo; details: human, oral; for AUC(0-inf) / Cmax / half-life: geometric mean (CV %); for half-life: read-out: t1/2 (converted); for Tmax: median (range)
Experimental: Quantitation used separate weighted 1 /x^2 linear least-squares regression analyses generated from calibration standards. Exploratory screening for metabolites was performed for some samples. […] Single-dose plasma pharmacokinetic parameters were determined in Part 1, and both single-dose (Day 1) and multiple-dose ([…]) parameters were determined in Part 2. […] Dose proportionality was analyzed using a power model in which pharmacokinetic exposure parameters and dose were converted to the natural log and linear regression results were reported, with the slope as the power estimate ([15]). […] In Part 2, achievement of steady-state concentrations was assessed using Tukey’s multiple comparison test for pre-dose and all dosing days (Days 2 to 10) for each dose level separately. In both studies, plasma pharmacokinetic parameters were calculated using WinNonlin (Certara; Radnor, PA), and urine pharmacokinetic parameters were calculated using SAS (SAS Institute; Cary, NC).

[7] = Day 10, CTB 400 mg + LED-E 300 mg q8h
[8] = Day 10, CTB 400 mg + LED-E 500 mg q8h
[9] = Day 10, LED-E 150 mg q8h, geometric mean (CV %)
[10] = Day 10, LED-E 300 mg q8h, geometric mean (CV %)
[11] = Day 10, LED-E 500 mg q8h, geometric mean (CV %)
[12] = multiple doses LED-E 150 mg q8h
[13] = multiple doses LED-E 300 mg q8h
[14] = multiple doses LED-E 500 mg q8h
[15] = 1000 mg, single dose LED-E 1,000 mg

## CCC(=O)N[C@H]1Cc2cccc(C(=O)O)c2OB1O [Ledaborbactam, ledaborbactam]
[1]; [7]
  AUC: 33300 ng·h/mL
  Cmax: 8470 ng/mL
[1]; [8]
  AUC: 62200 ng·h/mL
  Cmax: 16200 ng/mL
[1]; Tmax, Day 10, CTB 400 mg + LED-E 300 mg q8h, median (range)
  Tmax: 1 h
[1]; t1/2, Day 10, CTB 400 mg + LED-E 300 mg q8h
  half-life: 11.4 h
[1]; t1/2, Day 10, CTB 400 mg + LED-E 500 mg q8h
  half-life: 12.3 h
[2]; LED-E q8h dosing
  Steady-state plasma concentrations reached by: ≤ 3 days
[2]; Day 10, LED-E 75 mg q8h, 0 to 8 h post-dose, geometric mean (CV %)
  AUC: 13900 ng·h/mL
[2]; Day 10, LED-E 75 mg q8h, geometric mean (CV %)
  Cmax: 3690 ng/mL
[2]; Day 10, LED-E 75 mg q8h
  Tmax: 1 h
[2]; [9]
  AUC: 20800 ng·h/mL
  Cmax: 5870 ng/mL
[2]; Day 10, LED-E 150 mg q8h
  Tmax: 0.75 h
[2]; [10]
  AUC: 40900 ng·h/mL
  Cmax: 11600 ng/mL
[2]; Day 10, LED-E 300 mg q8h
  Tmax: 1.13 h
[2]; [11]
  AUC: 70000 ng·h/mL
  Cmax: 15800 ng/mL
[2]; 75 mg, Day 10, LED-E 75 mg q8h, geometric mean (CV %), read-out: t1/2 (converted)
  half-life: 9.3 h
[2]; 150 mg, Day 10, LED-E 150 mg q8h, geometric mean (CV %), read-out: t1/2 (converted)
  half-life: 11.4 h
[2]; 300 mg, Day 10, LED-E 300 mg q8h, geometric mean (CV %), read-out: t1/2 (converted)
  half-life: 11.3 h
[2]; 500 mg, Day 10, LED-E 500 mg q8h, geometric mean (CV %), read-out: t1/2 (converted)
  half-life: 12.5 h
[2]; Day 10, after 10 days of q8h dosing, across dose groups, read-out: Terminal half-life (t1/2) in plasma
  half-life: 11 to 12 h
[3]; [7]
  Ae0–8: 156 (11.3) mg
  CL renal: 85.8 mL/min
[3]; [8]
  Ae0–8: 243 (22.8)^d mg
  CL renal: 74.8 mL/min
[4]; single dose LED-E 300 mg
  CL renal: 66.3 mL/min
  Ae0–8: 113 (23.3) mg
  Ae0–48: 131 (20.3) mg
[4]; single dose LED-E 500 mg
  CL renal: 53.3 mL/min
  Ae0–8: 190 (14.1) mg
  Ae0–48: 220 (12.2) mg
[4]; single dose LED-E 800 mg
  CL renal: 58.7 mL/min
  Ae0–8: 364 (6.14) mg
  Ae0–48: 438 (3.3) mg
[4]; single dose LED-E 1000 mg
  CL renal: 75.5 mL/min
  Ae0–8: 459 (16.6) mg
  Ae0–48: 515 (16.9) mg
[5]; human, multiple doses LED-E 75 mg q8h
  CL renal: 44.2 mL/min
[5]; human, multiple doses LED-E 150 mg q8h
  CL renal: 51.8 mL/min
[5]; human, multiple doses LED-E 300 mg q8h
  CL renal: 51.5 mL/min
[5]; human, multiple doses LED-E 500 mg q8h
  CL renal: 82 mL/min
[5]; human, after oral dosing of LED-E, inferred from urinary excretion
  bioavailability: ≥ 68%
[5]; multiple doses LED-E 75 mg q8h
  Ae0–8: 43.1 (6.95) mg
  Ae0–48: 51.6 (7.80) mg
[5]; multiple doses LED-E 75 mg q8h, listed as LED
  Ae0–48: 51.6 mg
[5]; [12]
  Ae0–8: 73.1 (10.0) mg
  Ae0–48: 86.6 (11.1) mg
[5]; [13]
  Ae0–8: 137 (34.2) mg
  Ae0–48: 166 (27.8) mg
[5]; [14]
  Ae0–8: 283 (7.8) mg
  Ae0–48: 345 (11.2) mg
[5]; multiple doses LED-E 500 mg q8h, listed as LED
  Ae0–48: 345 mg
[6]; [15]
  AUC(0-inf): 114000 ng·h/mL
  Cmax: 26500 ng/mL
  half-life: 11.3 h
  Tmax: 2 h
[6]; single dose LED-E 100 mg
  AUC(0-inf): 15400 ng·h/mL
  Cmax: 4010 ng/mL
  half-life: 5.53 h
[6]; single dose LED-E 200 mg
  AUC(0-inf): 26200 ng·h/mL
  Cmax: 5970 ng/mL
  half-life: 6.1 h
[6]; single dose LED-E 300 mg
  AUC(0-inf): 33100 ng·h/mL
  Cmax: 7570 ng/mL
  half-life: 7.48 h
[6]; single dose LED-E 500 mg
  AUC(0-inf): 69300 ng·h/mL
  Cmax: 16800 ng/mL
  half-life: 11.3 h
[6]; single dose LED-E 800 mg
  AUC(0-inf): 125000 ng·h/mL
  Cmax: 24000 ng/mL
  half-life: 8.59 h
  Tmax: 2 h
